Patent US9943687B2, “Method of treating parkinson's disease and other movement disorders” (Duke University, priority 2007, dated 2018)
Values joined by “and” are separate entries in the source; they are usually repeats but may differ in a detail not shown here. Equal values may be shown once.

How the values were obtained:
[1] = tested on: striatal dopamine concentrations; details: cited from earlier work
[2] = tested on: wild-type mice; experiment: Open-field locomotion after acute pharmacological dopamine depletion; format: in vivo, wild-type C57/BL6J mice
Protocol: (§1) Rats were placed in a circular open-field (90 cm diameter) for 70 min (10 min adaptation and 1 h behavioural recording). The animals were then allowed to rest in its home cage for one hour. After that, the animals were reintroduced into the open-field and dorsal column stimulation (DCS) was applied every 10 minutes for 30 seconds. In mice, locomotion was documented both by video recordings and through an automated tracking system based in infra-red beams (Med Associates Inc., VT). Recordings were obtained before and after dopamine-depletion, and DCS was applied as described below.
(§2) The movements of the rats in the open-field were extracted from the digitized video recordings, with approximately 1 mm spatial resolution, with custom designed algorithms implemented in command interpreting software (The MathWorks Inc., MA). For mice, scored locomotion from the infra-red tracking system was binned into 500 ms bins (original resolution 50 ms). For locomotion extraction from video data, single frames with a 500 ms interval were used.
The number of bins used for histograms of locomotion speeds was adjusted according to the maximum speed scored in a single bin in the slowest condition (i.e. 500 mm/s for the rats and 180 mm/s for the mice). The relatively few (<0.3%) events with locomotion components faster than the upper limit found in the other conditions were assigned to the fastest bin. The number of events within each speed interval was summed and the relative change in response to DCS was calculated. A lower threshold just above the quantal step was used in the analysis of histogram distributions, i.e. 10 mm/500 ms for both mouse and rat data.
(§3) The first set of experiments was carried out using an inducible mouse model of PD, first in wild-type animals and then in dopamine-transporter knock-out (DAT-KO) mice (Sotnikova et al, PLoS Biol. 3:e271 (2005)). Through pharmacological inhibition of dopamine synthesis, acute dopamine depletion was induced in both types of animals in order to reliably document the effects of DCS during a severe parkinsonian-like state of akinesia. In agreement with previous experiments, the characteristic behavioral and electrophysiological changes following inhibition of dopamine synthesis was confirmed in these animals (Carlsson, Acta Neurol. Scand. Suppl 51:11 (1972), Costa et al, Neuron. 52:359 (2006), Sotnikova et al, PLoS Biol. 3:e271 (2005)). In patients, the cardinal symptoms of idiopathic PD, rigidity, resting tremor and brady-/hypokinesia, have been reported to be clinically apparent following degeneration of 60-70% of the dopaminergic neurons of the substantia nigra pars compacta, which in turn results in a […] reduction of striatal dopamine levels (Brooks et al, Biol. Psychiatry 59:908 (2006), Lloyd et al, J. Pharmacol. Exp. Ther. 195:453 (1975)). […] Secondly, a pronounced muscle tremor was evident during resting periods, which was reflected in characteristic oscillatory patterns in electromyographic (EMG) recordings obtained from chronically implanted microwires in the nuchal muscles (FIG. 12). This tremor was suppressed during locomotion bouts. […] (FIG. 13A, see also Drouot et al, Neuron 44:769 (2004) and Sakai et al, Brain Res. 633:144 (1994)).

[3] = tested on: corticostriatal circuit; experiment: Corticostriatal LFP oscillations / dopamine spectral index after AMPT injection; format: in vivo, C57/J (wild type) male mice; details: after AMPT injection 250 mg/kg i.p.
Protocol: Two C57/J (wild type) male mice where implanted with peripheral nerve cuff electrodes, microwire electrodes arrays in the striatum and motor cortex and one EMG wire in the trapezium muscle. After a week of recovery, a series of experiments were carried out. Individual animals were introduced to the open field activity (OFA) monitor cage, which permitted tracking of the animal's locomotive activity. After 10 minutes, the animal was injected with AMPT (250 mg/kg, i.p.) to produce a partial depletion in dopamine brain levels. The stimulation started 15 minutes after the injection. It was delivered in 2-minute windows, alternated with 2 minutes of rest (no stimulation). The amplitude was fixed at 0.4 mA. This value was selected on the basis that it produced a noticeable effect on the animal (soft scratching of the whiskers pads) at the onset of stimulation but no further signs of discomfort or pain. Sixteen different frequency values delivered in a pseudorandom way (1-130 Hz) were tested.
The key observation in these experiments was that IS at some frequencies could revert this strong neural oscillation pattern to the type of desynchronized firing activity observed during the control period. […] In order to quantify this observation, the ratio between the LFP power in the 2-4 Hz and 0-4 Hz range was used as an indicator of the predominant oscillatory pattern (FIG. 6). […]

[4] = tested on: wild-type mice; experiment: Catalepsy test (forepaws on bar 3 cm above the ground); format: in vivo, wild-type C57/BL6J mice; details: after the 6 h depletion period
Protocol: The first set of experiments was carried out using an inducible mouse model of PD, first in wild-type animals and then in dopamine-transporter knock-out (DAT-KO) mice (Sotnikova et al, PLoS Biol. 3:e271 (2005)). Through pharmacological inhibition of dopamine synthesis, acute dopamine depletion was induced in both types of animals in order to reliably document the effects of DCS during a severe parkinsonian-like state of akinesia. In agreement with previous experiments, the characteristic behavioral and electrophysiological changes following inhibition of dopamine synthesis was confirmed in these animals (Carlsson, Acta Neurol. Scand. Suppl 51:11 (1972), Costa et al, Neuron. 52:359 (2006), Sotnikova et al, PLoS Biol. 3:e271 (2005)). In patients, the cardinal symptoms of idiopathic PD, rigidity, resting tremor and brady-/hypokinesia, have been reported to be clinically apparent following degeneration of 60-70% of the dopaminergic neurons of the substantia nigra pars compacta, which in turn results in a […] reduction of striatal dopamine levels (Brooks et al, Biol. Psychiatry 59:908 (2006), Lloyd et al, J. Pharmacol. Exp. Ther. 195:453 (1975)). […]

[5] = tested on: striatal levels of dopamine; experiment: Tissue content analysis of striatal dopamine and metabolites (HPLC-EC) after AMPT; format: in vivo, wild-type C57/BL6J mice
Protocol: FIGS. 11A-11C. Tissue content analysis confirms that acute pharmacological dopamine depletion in wild-type mice leads to striatal dopamine levels similar to those observed in PD patients. […] Average quantities in depleted animals were reduced for dopamine, DOPAC and HVA to: 4.5 ng, 0.17 ng and 0.41 ng per mg tissue, respectively, compared to 14.4 ng, 0.74 ng and 1.36 ng per mg tissue, for saline injected control animals (**=p<0.005, Mann-Whitney test, n=6 in each group). Tissue content analysis of dopamine and metabolites.
Striatal tissue content of dopamine was assessed using high performance liquid chromatography with electrochemical detection, as previously described. Striata were rapidly dissected, frozen, and stored at −80° C. Later, tissue samples were homogenized in 0.1M HClO4 containing 100 ng/ml 3,4-dihydroxybenzylamine (DHBA) as an internal standard. Homogenates were centrifuged for 10 min at 10,000×g. Supernatants were filtered through 0.22 μm filter and analyzed for levels of dopamine using HPLC-EC. Monoamines and metabolites were separated on a microbore reverse-phase column (C-18, 5 μm, 1×150 mm, Unijet, BAS). The volume of injection was 5 μl.
as §3

[6] = tested on: DAT-KO mice; experiment: LFP spectral index in severely dopamine depleted animals; format: in vivo; details: last hours of testing period, coinciding with onset of locomotion
Protocol: FIG. 20. Local field potentials are shifted to higher frequencies as a result of DCS even in severely dopamine depleted animals. Average spectral indices (power ratio: [25-55]/[1.5-25] Hz) calculated for DCS+L-DOPA (black) and L-DOPA (grey) treated animals, respectively. DCS induced spectral changes even at the lowest L-DOPA dose tested (a single 1 mg/kg injection) while the spectral change in the L-DOPA only group occurred during the last hours of the testing period (after more than 20 mg/kg L-DOPA in total) coinciding with onset of locomotion.
Struck by the dramatic functional recovery on the behavioral level, the electrophysiological changes associated with motor improvements were analyzed next. […] The spectral shift was maintained throughout the stimulation period and lasted for ˜50 s following the off-set of stimulation. This indicates a prolonged shift in the activity state of these brain structures, also ruling out any major effects of contamination in the spectrograms from stimulation currents (FIG. 16C). To condense the spectral shift into a single measure, a spectral index was computed by dividing the spectral range analyzed into an upper and lower half and calculating the ratio of the summed power of the frequencies in the two intervals [(25-55 Hz)/(1.5-25 Hz)]. […]

[7] = tested on: DAT-KO mice; experiment: Minimum L-DOPA dose (alone or with DCS) required to restore locomotion; format: in vivo; details: AMPT-treated DAT-KO mice
Protocol: as §1, §2
In order to find the minimum dose of L-DOPA (alone or combined with DCS) required to restore locomotion, a severely dopamine-depleted akinetic animal model was used, namely mice lacking the gene for the presynaptic dopamine membrane transporter (DAT-KO). […]

[8] = tested on: tyrosine hydroxylase; experiment: Tyrosine hydroxylase staining and quantification in striatum of 6-OHDA lesioned rats; format: in vivo, Long-Evans rats; details: 6-OHDA three sites each side, 7 μg per site
Protocol: Rats received a total of […] 6-OHDA, injected in 3 locations of the striatum on each side. The injections contained a saline solution with 3.5 mg/ml 6-OHDA and 0.05% ascorbate. Anteroposterior, mediolateral and dorsoventral coordinates for the injections were: +1.0, +/−3.0, −5.0; −0.1, +/−3.7, −5.0 and −1.2, +/−4.5 and −5.0 (Winkler et al, Neurobiol. Dis. 10:165 (2002)).
The extent and position of striatal lesions was confirmed by TH immunohistochemistry. For quantification of TH-staining, digital photos of the individual sections were taken with a 16× microscope (Stemi 2000-c, Zeiss) under identical illumination conditions. The range in brightness was practically identical for every photo ranging from no light (inside the microscope) at the outer edge to the brightest non-stained part of each section. Images were converted to grey-scale bitmap format with an 8-bit dynamic range in brightness.

[9] = two i.p. injections of 250 mg/kg, 2 hours apart, measured 4 hours after last injection, n=6

## CC(N)(Cc1ccc(O)cc1)C(=O)O (stereo not drawn) [AMPT, α-methyl-p-tyrosine]
[1]; 250 mg/kg i.p.
  dopamine levels after AMPT in DAT-KO mice: virtually undetectable levels
[1]; DAT-KO mice treated with AMPT
  duration of severe akinesia, rigidity and tremors: up to 16 hours
  striatal dopamine concentration relative to control animals: 0.2%
[2]; depleted animals during testing periods
  average amount of locomotion as percentage of control values: ~10%
[2]; depleted animals, n=14
  average locomotion score in open-field (mean±SEM): 0.4±0.02 mm/s
[2]; fast speed interval
  locomotion score, fast movements, as percentage of non-depleted animals: 0.3%
[2]; medium speed interval
  locomotion score, medium movements, as percentage of non-depleted animals: 2.0%
[2]; slow speed interval
  locomotion score, slow movements, as percentage of non-depleted animals: 10.5%
[3]
  frequency of strong LFP synchronization after dopamine depletion: 4 Hz
[3]; basal value around 0.5
  dopamine spectral index (LFP power 2-4 Hz / 0-4 Hz): ~1
[4]
  catalepsy: time unable to remove the forepaws from bar: at least 30 s
[5]; two i.p. injections (250 mg/kg) during a 6 h period
  reduction of striatal dopamine levels: 69%
[5]; [9]
  striatal DOPAC tissue content in depleted animals: 0.17 ng per mg tissue
  striatal HVA tissue content in depleted animals: 0.41 ng per mg tissue
[5]; two i.p. injections of 250 mg/kg, 2 hours apart, measured 4 hours after last injection, n=6, 250 mg/kg
  striatal dopamine tissue content in depleted animals: 4.5±2.0 ng per mg tissue and 4.5 ng per mg tissue

## N[C@@H](Cc1ccc(O)c(O)c1)C(=O)O [L-DOPA]
[6]
  total L-DOPA dose at which spectral change occurred: more than 20 mg/kg
[7]; L-DOPA injections every hour with increasing dose
  L-DOPA injection dose at which locomotion first occurred: 5 mg/kg
[7]; cumulative dose of hourly injections
  total L-DOPA dose when locomotion first occurred: 15 mg

## NCCc1cc(O)c(O)cc1O [6-OHDA]
[8]
  tyrosine hydroxylase staining relative to sham treated controls: ~20% and 21%
